The numbers were not newly measured in article PMC8617944, “Preclinical Pharmacokinetics and Acute Toxicity in Rats of 5-{[(2E)-3-Bromo-3-carboxyprop-2-enoyl]amino}-2-hydroxybenzoic Acid: A Novel 5-Aminosalicylic Acid Derivative with Potent Anti-Inflammatory Activity” (Molecules, 2021), which cites them from elsewhere.

As a reminder, the LD50 is the dose at which mortality reaches 50%.

One series concerns rats. The note with it: rat, in vivo, po; cited from earlier work.
Details of series [1]: method as in ref 32, 33 = [32]; doi:10.1016/j.arabjc.2016.12.026; 32. Cabrera Pérez L.C. Gutiérrez Sánchez M. Mendieta Wejebe J.E. Hernández Rodríguez M. Fragoso Vázquez M.J. Salazar J.R. Correa Basurto J. Padilla Martínez I.I. Rosales Hernández M.C. Novel 5-aminosa || [33]; 33. Correa Basurto J. Rosales Hernández M.C. Mendieta Wejebe J.E. Trujillo Ferrara J.G. Padilla Martínez I.I. Ramírez Durán L.A. Alemán González Duhart D. Síntesis de un derivado del ácido 5-aminosali. The note with it: 0.408 mM; cited from earlier work.

Take `Nc1ccc(O)c(C(=O)O)c1` [Compound 5-ASA, 5-aminosalicylic acid]: in the series on rats, the LD50 is listed as 2800 mg/kg. In addition, the “reduction of the free radical DPPH” value in series [1] was “about 85%”.
